Assay [1] has as its target T1, Human KIF18A (amino acid sequence 1-417) (Homo sapiens, UniProt Q8NI77).
T1 construct: purchased Viva Biotech (Shanghai) Ltd
T1 sequence (Q8NI77 1-417): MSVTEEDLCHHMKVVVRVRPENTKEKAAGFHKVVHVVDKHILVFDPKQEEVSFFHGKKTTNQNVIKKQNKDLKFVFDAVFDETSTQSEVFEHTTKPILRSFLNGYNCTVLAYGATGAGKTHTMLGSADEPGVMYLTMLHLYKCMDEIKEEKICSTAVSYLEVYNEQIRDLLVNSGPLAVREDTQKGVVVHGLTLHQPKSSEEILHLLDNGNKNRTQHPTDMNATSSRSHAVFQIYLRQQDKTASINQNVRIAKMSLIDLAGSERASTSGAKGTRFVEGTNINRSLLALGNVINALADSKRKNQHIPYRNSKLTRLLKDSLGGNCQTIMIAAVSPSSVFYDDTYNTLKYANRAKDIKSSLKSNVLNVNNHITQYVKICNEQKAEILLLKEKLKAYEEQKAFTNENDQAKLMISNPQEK
The experiment in a line: Enzymatic activity test (ADP-Glo, microtubule-stimulated ATPase). In kind it is biochemical. As to conditions: 60 µg/mL microtubules, 25 µM ATP, 2.5 nM KIF18A protein, 120 min at ambient temperature, chemiluminescence; read-out: KIF18A IC50. The method, then: Materials: Human KIF18A (amino acid sequence 1-417) was purchased from Viva Biotech (Shanghai) Ltd.; the ADP-Glo™ protein kinase kit was acquired from Promega, USA; tubulin was sourced from Cytoskeleton, USA; and the 384-well assay plate and Envision multifunctional microplate reader were obtained from PerkinElmer, USA.
Enzymatic Activity Test: The compound powder was dissolved in DMSO to prepare a stock solution of 10 mM. Then gradient dilution was performed for the compounds in the microplate to achieve a final concentration of 0-10 µM. Then, 2.5 µL each of tubulin, compound, ATP, and KIF18A protein were added to the microplate in sequence for reaction at ambient temperature for 120 min. The final concentrations in the enzyme reaction were 60 µg/mL for microtubules, 25 µM for ATP, and 2.5 nM for KIF18A protein. After the enzyme reaction, 10 µL of ADP-GLO reaction reagent was added to each well and incubated at room temperature for 30 min. After that, 20 µL of detection reagent was added to each well and incubated at room temperature for 30 min in the dark. Finally, chemiluminescence detection was performed using the PerkinElmer Envision.
On the technique in general: In ADP-Glo the light output rises with the ADP produced.

For the next assay, the system named is OVCAR3 cells. Put plainly: Cell proliferation activity test (CyQUANT Direct). In kind it is cell-based. As to conditions: 3 days, 0.2% DMSO, CyQUANT fluorescence. The protocol:
Materials and Cells: OVCAR3 cells were purchased from Nanjing Cobioer Biosciences Co., Ltd. RPMI-1640 medium, fetal bovine serum, and the CyQUANT Direct Cell Proliferation Assay kit were purchased from Thermo Fisher Scientific, USA; 96-well cell culture plates were sourced from Corning, USA.
Cell Culture: OVCAR3 cells were cultured with RPMI-1640 medium containing 10% fetal bovine serum and incubated in a 5% CO2 incubator at 37°C. Only cells in the logarithmic growth phase could be used for the test.
OVCAR3 cells were inoculated into a 96-well cell culture plate at 90 µL per well and incubated overnight in a 5% CO2 incubator at 37°C. The compound powder was dissolved in DMSO to prepare a stock solution of 10 mM. Then gradient dilution was performed for the compounds in the microplate to achieve a final concentration of 0-10 µM. 10 µL of cell culture medium containing compounds was added to each well to make the final DMSO content 0.2%. The cell plates were incubated in a 5% CO2 incubator at 37°C for 3 days. 100 µL of CyQUANT detection reagent was added to each well, reacted at 37°C for 60 min, and fluorescence detection was performed using the PerkinElmer Envision.

The test system of the next assay is HT29 cells. The experiment in a line: CyQuant cell proliferation activity test. In kind it is cell-based. Particulars: HT29 at 2000 cells per well, 3 days, 0.2% DMSO, XLFIT. The protocol: Materials and Cells: HT29 cells were purchased from Nanjing Cobioer Biosciences Co., Ltd.; RPMI-1640 medium, fetal bovine serum, Trypsin-EDTA (0.25%), 96-well plates, and CyQuant reagents were purchased from ThermoFisher (USA); DMSO was purchased from SIGMA (USA).
Cell Culture: HT29 cells were cultured with RPMI-1640 containing 10% fetal bovine serum under the condition of 37°C and 5% CO2. Only cells in the logarithmic growth phase could be used for the test.
Cell Proliferation Activity Test: CyQuant reagent was used to detect the proliferation inhibitory activity of compounds on HT29 cells. The cell density was adjusted, and 100 µL per well was inoculated into a 96-well plate (HT29 at 2000 cells per well), then incubated overnight at 37°C and 5% CO2. Add compounds of various target concentrations (initial concentration of 3000 nM, 3-fold dilution, 9 concentration gradients), and make the DMSO content 0.2%. The cell plate was incubated at 37°C in 5% CO2 for 3 days. CyQuant reagent was added and incubated for 1 h. The plates were read by Envision, and IC50 was calculated using XLFIT.

Molecules are shown by their SMILES. Where two headings read alike, the source gives them in different places.

Usually IC50 stands for the concentration that inhibits the measured activity by half.

With `Cc1cc2nc(n1)N1CCC(F)(F)C(/C=C\CC3CCN(CC3)c3cc(NS(=O)(=O)CCO)c4ccccc4c3C(=O)N2)C1` (single isomer, unassigned) [Example 1A, (cis)-N-(1^4,1^4-difluoro-2^6-methyl-4-oxo-3-aza-2(2,4)-pyrimidin-1(1,3),6(1,4)-dipiperidin-5(1,2)-naphthacyclonon-8-en-5^4-yl)-2-hydroxyethane-1-sulfonamide], the IC50 in assay [1] was greater than 3000 nM; in the assay with OVCAR3 cells it was 2790 nM; in the assay with HT29 cells (read-out: HT-29 IC50), 2790 nM.
As to `Cc1cc2nc(n1)N1CCC(F)(F)C(/C=C/CC3CCN(CC3)c3cc(NS(=O)(=O)CCO)c(C(=O)N(C)C)cc3-n3cc-2nn3)C1` (stereo not shown) [Example 93, (3^4Z,7E)-1^4,1^4-difluoro-4^4-((2-hydroxyethyl)sulfonamido)-2^6-methyl-3^1H-2(2,4)-pyrimidin-1(1,3),5(1,4)-dipiperidin-3(4,1)-triazole-4(1,2)-benzocyclooct-7-en-4^5carboxamide], the IC50 in the assay with OVCAR3 cells (Homo sapiens, OVCAR-3, 72 h) was 91 nM; in the assay with HT29 cells (Homo sapiens, HT-29, 72 h), 194 nM.
Regarding `COc1cc2nc(n1)N1CCC(F)(F)C(CCCc3ccc(cc3)-c3cc(NS(=O)(=O)CCO)ncc3C(=O)N2)C1` (single isomer, unassigned) [Example 56B, N-(1^4,1^4-difluoro-2^6-methoxy-4-oxo-3-aza-2(2,4)-pyrimidin-5(3,4)-pyridin-1(1,3)-piperidin-6(1,4)-benzoazacyclononane-5^6-yl)-2-hydroxyethane-1-sulfonamide], the results for the concentration for half-maximal inhibition (IC50) (in assay [1]; in the assay with OVCAR3 cells; with HT29 cells (read-out: HT-29 IC50)) were 9 nM, 112 nM and 192 nM, respectively.
In the case of `Cc1cc2nc(n1)N1CCC(F)=C(/C=C\CC3CCN(CC3)c3cc(NS(=O)(=O)CCO)ccc3-n3cc-2nn3)C1` [Example 82, N-((3^4Z,7Z)-1^4-fluoro-2^6-inethyl-1^1,1^2,1^3,1^6-tetrahydro-3^1H-2(2,4)-pyrimidin-1(1,5)-pyridin-5(1,4)-piperidin-3(4,1)-triazole-4(1,2)-benzylcyclooct-7-en-4^4-yl)-2-hydroxyethane-1-sulfonamide], the IC50 in assay [1] came out at 1020 nM; in the assay with OVCAR3 cells (Homo sapiens, OVCAR-3, 72 h), 1280 nM.
As for `Cc1cc2nc(n1)N1CCC(F)(F)C(/C=C\CC3CCN(CC3)c3cc(NS(=O)(=O)CCO)ccc3-c3cn-2nn3)C1` (single isomer, unassigned) [Example 84B, N-((3^4Z,7Z)-1^4,1^4-difluoro-2^6-methyl-3^1H-2(2,4)-pyrimidin-1(1,3),5(1,4)-dipiperidin-3(1,4)-triazole-4(1,2)-benzocyclooct-7-en-4^4-yl)-2-hydroxyethane-1-sulfonamide], the results for the IC50 (in assay [1]; with OVCAR3 cells) were 258 nM and 472 nM, respectively.
For `Cc1cc2nc(n1)N1CCC(F)(F)C(/C=C\CC3CCN(CC3)c3cc(NS(=O)(=O)CCO)ccc3-c3cn-2nn3)C1` (single isomer, unassigned) [Example 84A, N-((3^4Z,7Z)-1^4,1^4-difluoro-2^6-methyl-3^1H-2(2,4)-pyrimidin-1(1,3),5(1,4)-dipiperidin-3(1,4)-triazole-4(1,2)-benzocyclooct-7-en-4^4-yl)-2-hydroxyethane-1-sulfonamide] the same measures were 309 nM and 26 nM.
As to `Cc1cc2nc(n1)N1CCC(F)(F)C(CC=Cc3ccc(nc3)-c3cc(NS(=O)(=O)CCO)ccc3C(=O)N2)C1` (stereo not shown) [Example 48, N-(1^4,1^4-difluoro-2^6-methyl-4-oxo-3-aza-2(2,4)-pyrimidin-6(2,5)-pyridin-1(1,3)-piperidin-5(1,2)-phenylheterocyclonon-7-en-5^4-yl)-2-hydroxyethane-1-sulfonamide], the IC50 in the assay with OVCAR3 cells (Homo sapiens, OVCAR-3, 72 h) was 1210 nM; in the assay with HT29 cells (Homo sapiens, HT-29, 72 h), 1560 nM.
Regarding `Cc1cc2nc(n1)N1CCC(F)=C(/C=C\CC3CCN(CC3)c3cc(NS(=O)(=O)CCO)c4c(c3C(=O)N2)CCC4=O)C1` [Example 3, N-(1^4-fluoro-2^6-methyl-5^1,4-dioxo-11,1^2,1^3,1^6,5^2,5^3-hexahydro-5^1H-3-aza-^2(2,4)-pyrimidin-1(1,5)-pyridin-6(1,4)-piperidin-5(4,5)-indenoheterononane-8-en-5^7-yl)-2-hydroxyethane-1-sulfonamide], the IC50 in assay [1] stood at 566 nM; with OVCAR3 cells (Homo sapiens, OVCAR-3, 72 h), 1130 nM.
As to `Cc1cc2nc(n1)C1CN(/C=C/CC3CCN(CC3)c3cc(NS(=O)(=O)CCO)ccc3-c3cn-2nn3)CCC1(F)F` (single isomer, unassigned) [Example 84C, N-((3^4Z,7E)-1^4,1^4-difluoro-2^6-methyl-3^1H-2(2,4)-pyrimidin-1(1,3),5(1,4)-dipiperidin-3(1,4)-triazole-4(1,2)-benzocyclooct-7-en-4^4-yl)-2-hydroxyethane-1-sulfonamide], the 50% inhibitory concentration (IC50) turned out to be 186 nM in assay [1] and 38 nM in the assay on OVCAR3 cells.
Consider `Cc1cc2nc(n1)N1CCC(F)(F)C(/C=C/CCC3CCN(CC3)c3cc(NS(=O)(=O)CCO)ccc3-n3cc-2nn3)C1` (racemic) [Example 86, N-((3^4,8)-1^4,1^4-difluoro-2^6-methyl-3^1H-2(2,4)-pyrimidin-1(1,3),5(1,4)-dipiperidin-3(4,1)-triazole-4(1,2)-benzoazacyclononane-8-en-44-yl)-2-hydroxyethane-1-sulfonamide], for which the concentration for half-maximal inhibition (IC50) in assay [1] worked out at 352 nM; with OVCAR3 cells (Homo sapiens, OVCAR-3, 72 h) it was 63 nM.
As to `Cc1cc2nc(n1)N1CCC(F)(F)C(CCCc3ccc(cc3)-c3cc(NS(=O)(=O)CCO)ccc3C(=O)N2)C1` (single isomer, unassigned) [Example 46B, N-(1^4,1^4-difluoro-2^6-methyl-4-oxo-3-aza-2(2,4)-pyrimidin-1(1,3)-piperidin-5(1,2),6(1,4)-diphenylheterocyclononane-5^4-yl)-2-hydroxyethane-1-sulfonamide], the results for the half-inhibitory concentration (IC50) (in assay [1]; in the assay on HT29 cells (read-out: HT-29 IC50)) were 57 nM and 36 nM, respectively.
Consider `Cc1cc2nc(n1)N1CCC(F)(F)C(CCCc3ccc(cc3)-c3cc(NS(=O)(=O)CCO)c(F)cc3C(=O)N2)C1` (stereo not shown) [Example 53, 2-Hydroxy-N-(1^4,1^4,5^5-trifluoro-2^6-methyl-4-oxo-3-aza-2(2,4)-pyrimidin-1(1,3)-piperidin-5(1,2),6(1,4)-diphenylheterocyclononane-5^4-yl)ethane-1-sulfonamide], for which the IC50 in assay [1] amounted to 49 nM; in the assay on OVCAR3 cells (Homo sapiens, OVCAR-3, 72 h), 46 nM.
The matching figures for `Cc1cc2nc(n1)N1CCC(F)(F)C(/C=C\c3csc(c3)-c3cc(NS(=O)(=O)CCO)ccc3C(=O)N2)C1` (stereo not shown) [Example 67, N-(2^4,2^4-difluoro-1^6-methyl-7-oxo-8-aza-1(2,4)-pyrimidin-2(1,3)-piperidin-5(2,4)-thiophene-6(1,2)-benzeneheterocyclooct-3-en-6^5-yl)-2-hydroxyethane-1-sulfonamide]: 86 nM and 481 nM.
